Experimental data reported in a melting point compilation (Tetko et al.; mined from patent text by program, amines drawn as free bases though some values may be those of a salt).

Row | Structure (SMILES) | melting point [°C]
1 | C#CCOC(=O)C1=C(C)NC(C)=C(C(=O)OCC)C1c1cccc([N+](=O)[O-])c1 (configuration not stated) | 132 to 133
2 | O=C(NC1N=C(c2ccccc2F)c2ccccc2NC1=S)c1ccc(Cl)cc1 (configuration not stated) | 156 to 158
3 | CS(=O)(=O)c1ccc(-c2nn(CC3CC3)c(=O)cc2-c2ccc(Cl)cc2)cc1 | 140
4 | Cc1ccc2c(c1)CCC2=NNC(=N)N | > 275
5 | Cn1nc(N)c(C(N)=O)c1N | 213 to 215
6 | CCOC(=O)c1[nH]c2ccc(C)cc2c1Sc1ccc(Cl)cc1 | 158 to 160
7 | CC(C)(C)CC(C)(C)c1cc(-n2nc3ccc(C(F)(F)F)cc3n2)c(O)c(C(C)(C)c2ccccc2)c1 | 119 to 121
8 | N#Cc1c(F)cccc1S(=O)(=O)N(Cl)Cl | 149 to 152
9 | CCOC(=O)c1ccn2c(C(=O)c3cccc(O)c3)c(-c3ccccc3)cc2c1 | 193 to 195
10 | O=C1c2ccccc2CN1CSc1ccncc1 | 131 to 132
11 | CCOC(=O)C1(C(=O)OCC)CCC2(c3cc(OC)c(OC)cc3CCN2C(=O)CC)C(C2c3cc(OC)c(OC)cc3CCN2CC)C1 (configuration not stated) | 138
12 | COc1cc(C(C)C)c2c(c1)S(=O)(=O)N(COC(=O)c1c(C)nn(-c3ccccc3)c1C)C2=O | 167 to 169
13 | COCC(OC(C)=O)C1CC(OC(C)=O)C2(C)CCC3C(CCC4CC(=O)CC(C)C43C)C12 (configuration not stated) | 149 to 150
14 | CCOC(=O)c1cn(CC)c2occc2c1=O | 158 to 160
15 | CCn1c(CC#N)ccc1C(=O)c1ccc(Cl)cc1 | 145 to 147
16 | O=C(NCCOc1ccc(CC(Oc2ccc(F)cc2)C(=O)O)cc1)c1ccc(-c2ccccn2)cc1 (configuration not stated) | 139 to 140
17 | Cc1nc2c(N)nc3ccccc3c2n1CCCNC(=O)OC(C)(C)C | 112 to 115
18 | COc1ccc(-c2[nH]nc3c2C(=O)c2c(NC(=O)Cc4ccccc4)cccc2-3)cc1 | 280
19 | C[C@H](C(=O)O)c1ccc2cc(OCCCCCCc3cccc(OCc4ccccc4)c3OCc3ccccc3)ccc2c1 | 66 to 70
20 | CC(C)COC(=O)COC(=O)CON1CC(NC(=O)OCc2ccccc2)C1=O (configuration not stated) | 90 to 92
21 | O=C(O)Cc1ccc(-c2ccc(F)cc2)c(F)c1 | 144 to 146
22 | CCOc1ccc(C2=NN(C3CCN(S(C)(=O)=O)CC3)C(=O)[C@@H]3CC=CC[C@H]23)cc1OCC | 99 to 102
23 | CC(C)S(=O)(=O)c1ccc2c(c1)nc(CC1CCCC1)n2CC1CC1 | 137
24 | COC(=O)N[C@@H]1CN2C(=O)N(c3cc(Cl)nc(Cl)c3)C(=O)[C@@]2(Cc2ccc(OC(F)(F)F)cc2)C1 | 120
25 | CCCS(=O)(=O)NNC(=O)NNS(=O)(=O)CCC | 191 to 194
26 | Cc1ccc2[nH]c(-c3ccccc3)cc(=O)c2c1 | 290 to 292

Row | Structure (SMILES) | melting point [°C]
27 | Cc1nc(CO)cn1Cc1ccccc1 | 140 to 146
28 | Cc1cccc(NS(=O)(=O)c2ccc(OCc3nc(-c4ccccc4)oc3C)cc2)c1C(=O)O | 167 to 170
29 | CCCCCCC#CC(O)C1=Nc2ccccc2C(=O)C1C (configuration not stated) | 148 to 149
30 | CCOC(=O)c1ccc(OCC2CN(c3cccnn3)CCO2)cc1 (configuration not stated) | 110
31 | CCS(=O)(=O)CCNC(=O)C1=C(C(=O)Nc2ccc(Cl)cc2F)CCCC1 | 150 to 151
32 | c1ccc(-c2ccc(-c3cn4ccc5ccccc5c4n3)cc2)cc1 | 221 to 222
33 | CCC(O)c1cc(-c2ccccc2)no1 (configuration not stated) | 101 to 102
34 | COc1ncc(Oc2ccc(Cl)cc2)c2cc(C(N)=O)sc12 | > 250
35 | CCCCCCCCC(=O)Oc1ccc(-c2ccc(C#N)cc2)cc1 | 43.2 to 43.6
36 | CS(=O)(=O)C(=C1CN(C(c2ccccc2)c2ccccc2)C1)c1cccc(N2CCCC2)c1 | 153
37 | O=C(O)CCCN(C(=O)c1ccc(Cl)cc1Cl)c1cccc2ccccc12 | 134 to 136
38 | COc1cc(CCC(=O)c2c(OC)cc(OC)c(CCC(C)C)c2OCC(=O)O)ccc1O | 87 to 88
39 | Cc1cc2c(s1)CCCC1CC(=O)N(c3ccccc3)N=C21 (configuration not stated) | 102 to 103
40 | Cc1ccc(-c2ncc(C)c(C)n2)cc1 | 114
41 | Nc1ccc(OC2CCN(c3ccncc3)CC2)cc1 | 209 to 210
42 | O=C1NCC(=O)c2ncn(C3OC(COC(=O)c4ccccc4)C(OC(=O)c4ccccc4)C3OC(=O)c3ccccc3)c2N1 (configuration not stated) | 252
43 | CN(C)C(C#N)C1(c2ccc(Cl)cc2)CCC1 (configuration not stated) | 90 to 91
44 | O=C(Oc1ccc(Oc2ccc(C(F)(F)F)cn2)cc1)N1CCS(=O)CC1 | 156 to 157
45 | Nc1cccc2c(=O)[nH]sc12 | 161 to 165
46 | O=C1CC=C(c2c[nH]c3ccc([N+](=O)[O-])cc23)CC1 | 210 to 212
47 | CC(C)(C)C(=O)C(Br)c1ccccc1 (configuration not stated) | 38 to 42
48 | Nc1nnc(C(F)(F)C(Cl)Cl)o1 | 171
49 | CC1(C)CCC(C)(C)c2c(OS(=O)(=O)C(F)(F)F)cc(-c3ccccc3)cc21 | 110
50 | Cc1noc(-c2ccc(S(C)(=O)=O)cc2)c1-c1ccc(-c2cscn2)cc1 | 119
51 | CCNc1cccnc1N1CCN(C(=O)c2ccc(C(=O)NCCO)cn2)CC1 | 178 to 180
52 | COc1cc(OC)nc(C2(Cl)OC(=O)c3ncccc32)n1 (configuration not stated) | 146 to 148

Row | Structure (SMILES) | melting point [°C]
53 | CCCCCCCCC(=O)N(C)Cc1ccc(C(=O)O)cc1 | 79.5 to 81
54 | Cc1ccc(O)c(C)c1[N+](=O)[O-] | 99 to 101
55 | O=C(O)[C@@H]1CCCN1C(=O)C(CS)CS | 138 to 140
56 | Cc1cccc(C)c1N(CC(C)N1C(=O)c2ccccc2C1=O)S(C)(=O)=O (configuration not stated) | 124 to 127
57 | CCOC(=O)c1nn(-c2ccccc2Br)c(=O)c(C#N)c1C | 106 to 108
58 | CCCCn1c(Cc2cc(OC)ccc2Cl)nc2c(N)ncnc21 | 138 to 139
59 | COc1ccc(C(=O)Nc2ccccc2)cc1NC(=S)Nc1cccc(C(C)=O)c1 | 176 to 177
60 | COc1cc([C@@H]2c3cc4c(cc3C=C[C@H]2C(=O)O)OCO4)cc(OC)c1OC (relative stereo) | 177 to 180
61 | CNC(=O)N(OC)c1ccc(Oc2ccc3sncc3c2)cc1 | 108
62 | O=C(O)Cc1c(-c2ccco2)nn(-c2ccccc2)c1-c1ccco1 | 199 to 202
63 | C=C(COc1cc(Cl)ccc1C=NNP(=O)(OCC)OCC)C(C)C | 103 to 106
64 | CN=C(NCCCc1nc2cc(C3=NNC(=O)CC3C)ccc2[nH]1)NC(=O)c1ccccc1 (configuration not stated) | 270
65 | CNC1=CC(=O)N(C)C1 | 132 to 134
66 | CCOC(=O)C(=CNCC1CCCO1)C(=O)c1ccc(Br)cc1Cl (configuration not stated) | 136
67 | O=C(O)COc1cc2cc(C3CCCCC3)sc2c(Cl)c1Cl | 167 to 168
68 | Cc1c(C)c2c(c(C)c1N)CC(C)(CI)O2 (configuration not stated) | 105 to 107
69 | COC(=O)c1csc(-c2ccc(C#N)cc2)n1 | 107 to 108
70 | CC1(C)C(=O)N(c2ccc(C#N)c(C(F)(F)F)c2)C(=S)N1CCO | 130
71 | N#Cc1nn(-c2c(Cl)cc(C(F)(F)F)cc2Cl)c(N)c1-c1ccccc1C(F)(F)F | 161
72 | NC(=O)c1nnn(Cc2ccc(C(Cl)=C(Cl)Cl)cc2)c1N | 200 to 203
73 | COc1cc(C(=O)c2cccs2)cc([N+](=O)[O-])c1OC | 102 to 104
74 | CN(C)C(=O)C1(C)CN(C(=O)Nc2ccc(Cl)cc2)N=C1c1ccc(Cl)cc1 (configuration not stated) | 194 to 197
75 | COc1cc2c(cc1OC)CN(c1nc(N3CCc4cc(OC)c(OC)cc4C3)nc(N3CCc4cc(OC)c(OC)cc4C3)n1)CC2 | 166 to 169
76 | CC(=O)N1CCN(C(=S)Nc2cc3sc(C(C)(C)C)nc3cc2N2CCC(C)CC2)CC1 | 187 to 190
77 | NC(=O)Cn1c(-c2ccc(Cl)cc2)nc2cccnc21 | 270 to 271
78 | Cc1ccc(-c2cccc(C#N)c2)cc1 | 59 to 61

Row | Structure (SMILES) | melting point [°C]
79 | CC1(C)COc2cc(C(F)(F)F)ccc2C(O)(c2ccccn2)C1 (configuration not stated) | 78
80 | O=C(O)C1(CC2CCCC2)CC1 | 42 to 45
81 | N#Cc1ccc(-c2ccc(OCc3ccccc3)cc2)cc1 | 150 to 152
82 | CC(C)n1nc(-c2nc(C(=O)O)c(N)nc2-c2ccccc2)ccc1=O | 233 to 235
83 | CC(C)(C)NC(=O)N1Cc2c(-c3ccc(F)cc3)ncn2-c2ccccc21 | 241 to 244
84 | CCO[C@@H]1c2ccc3c(nc(C)n3C)c2O[C@H](c2ccccc2)[C@H]1OC(=O)C(C)(C)C | 164
85 | CCCN(CCC)C(=O)COc1nc(-c2ccccc2)nc(C)c1C | 88 to 89
86 | CC(=O)c1c(C)[nH]c(C(C)C)c1C | 166 to 167
87 | CC(C)c1ccccc1N1/C(=N\N=C/c2ccc(-c3ncn(-c4ccc(OC(F)(F)F)cc4)n3)cc2)SCC1C (configuration not stated) | 201 to 204
88 | CCCCOc1cc2c(cc1C=Cc1ccc(C(=O)O)cc1)C(C)(C)CCC2(C)C | 194 to 196
89 | Nc1ccccc1Nc1ccc(Nc2nccs2)cc1 | 184 to 186
90 | N#Cc1nc(Cl)c(-c2c(F)cccc2Cl)c(Cl)c1Br | 90
91 | NC(=O)c1nc(C2CC2)nc(NCc2ccco2)c1Cl | 126 to 128
92 | O=S(=O)(Nc1ccc(C(F)(F)F)cc1I)c1ccccc1 | 84 to 86
93 | FC(F)(F)c1ccc(-c2cc(Oc3ccc4cccnc4c3)nnc2Oc2ccc3cccnc3c2)cc1 | 158 to 162
94 | C#CCOc1ccc(C(=O)OC)c(OC)c1 | 88
95 | CC(=O)Nc1ccc(OC(C)C(=O)O)cc1 (configuration not stated) | 170 to 172
96 | C=CC(=O)NCN1CCCC1=O | 73 to 74
97 | CCOCc1nc2c(N)nc3cc(OCc4cccc(OC)c4)ccc3c2n1CC(C)(C)NS(C)(=O)=O | 221 to 222
98 | COC(=O)CNC(=S)n1nc(-c2ccc(Cl)cc2)nc1N | 142 to 145
99 | O=C1Nc2ccc3sccc3c2C1=O | 200 to 201
100 | c1ccc2c(c1)nc1c3c(onc32)CCC1 | 149 to 150
101 | CNC(=O)[C@@H](C[C@H](O)[C@H](CC1CCCCC1)NC(=O)OC(C)(C)C)C(C)(C)O | 174 to 175
102 | COc1ccc(C(=O)C2Cc3cc(OC)ccc3C2=O)cc1 (configuration not stated) | 160 to 162
